Assay results: PubChem BioAssay (NCI)
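Values below derive from 48-hour exposures of cells grown in 96-well plates, with endpoints linearly interpolated between the two concentrations bracketing the appropriate inhibition level. TGI marks complete inhibition of growth.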

Legend:
Assay in all cases: NCI anticancer screen, dose series, 48 h
NCI-H460 lung = system: NCI-H460 lung
LOX IMVI melanoma = system: LOX IMVI melanoma
UACC-62 melanoma = system: UACC-62 melanoma
786-0 renal = system: 786-0 renal
RXF 393 renal = system: RXF 393 renal
CCRF-CEM leukemia = system: CCRF-CEM leukemia
NCI-H23 lung = system: NCI-H23 lung
NCI-H522 lung = system: NCI-H522 lung
OVCAR-5 ovarian = system: OVCAR-5 ovarian
MDA-N = system: MDA-N
COLO 205 colon = system: COLO 205 colon
EKVX NSCLC = system: EKVX NSCLC

Row | Compound | TGI (NCI-H460 lung) [µM] | TGI (LOX IMVI melanoma) [µM] | TGI (UACC-62 melanoma) [µM] | TGI (786-0 renal) [µM] | TGI (RXF 393 renal) [µM] | TGI (CCRF-CEM leukemia) [µM] | TGI (NCI-H23 lung) [µM] | TGI (NCI-H522 lung) [µM] | TGI (OVCAR-5 ovarian) [µM] | TGI (MDA-N) [µM] | TGI (COLO 205 colon) [µM] | TGI (EKVX NSCLC) [µM]
1 | C#C[C@]1(O)CC[C@H]2[C@@H]3CCC4=C/C(=N\OCCN5CCCCC5)CC[C@]4(C)[C@H]3CC[C@@]21C | 27.4 | 16.5 | 10.7 | 14.9 | 11.3 | > 53.8 | 17.5 | 6.08 | 28.1 | 4.21 | 7.43 | 19.9
2 | S=C(NCc1ccccc1)Nc1sc(=NCc2ccccc2)nc2sc3c(c12)CCN(N1CCc2c(sc4nc(=NCc5ccccc5)sc(NC(=S)NCc5ccccc5)c24)C1)C3 | > 83.9 | > 100 | > 75.2 | > 40.9 | > 65.9 | > 70.2 | > 83.4 | > 100 | > 85.2 | > 58.2 | > 100 | > 64.1
3 | CCOC(=O)c1c(O)cn2c1[nH]c1cccc3cccc2c31 | > 100 | > 100 | > 100 | > 100 | > 100 | > 100 | > 100 | > 100 | > 100 | > 100 | > 100 | > 100
4 | CCOC(=O)CNC(=O)C(CCC(=O)N(C)O)NC(=O)CCC(N)C(=O)O (centres undefined) | > 100 | > 100 | > 100 | > 100 | > 100 | > 100 | > 100 | > 100 | > 100 | > 100 | > 100 | > 100
5 | Nc1ncnc2c1ncn2[C@H]1C=C[C@@H](NO)C1 | > 100 | > 100 | > 100 | > 100 | > 100 | > 100 | > 100 | > 100 | > 100 | > 100 | > 100 | > 100
6 | COc1ccc(/C=N\N(C)Cc2cccc3ccsc23)cc1 | > 100 | > 100 | > 100 | > 100 | > 100 | > 100 | > 100 | > 100 | > 100 | > 100 | > 100 | > 100
7 | Cc1c(NC(=S)Nc2ccc([N+](=O)[O-])cc2)c(=O)n(-c2ccccc2)n1C | > 100 | > 100 | > 100 | > 100 | > 100 | > 100 | > 100 | > 100 | > 100 | > 100 | > 100 | > 100
8 | CN(C)Cc1cc(Cl)c(O)c(CN(C)C)c1 | > 100 | > 100 | > 100 | > 100 | > 100 | > 100 | > 100 | > 100 | > 100 | > 100 | > 100 | > 100
9 | Cc1ccc(S(=O)(=O)n2cc(C=O)c(-c3cn(S(=O)(=O)c4ccc(C)cc4)cc3-c3cn(S(=O)(=O)c4ccc(C)cc4)cc3C=O)c2)cc1 | > 100 | 74.4 | > 100 | > 100 | > 100 | > 100 | > 100 | > 100 | > 100 | > 100 | > 100 | > 100
10 | COC(=O)Nc1nc2ccc(NS(=O)(=O)c3cccs3)cc2[nH]1 | > 100 | > 100 | > 100 | > 100 | 85.8 | > 100 | > 100 | 29.9 | > 100 | 16.8 | > 100 | 73.7
11 | O=C(Nc1ccccc1)N(CCN(Cc1ccccc1)C(=O)Nc1ccccc1)CCN(Nc1ccccc1)C(=O)Nc1ccccc1 | > 100 | > 100 | > 100 | > 100 | > 100 | > 100 | > 100 | > 100 | > 100 | > 100 | > 100 | > 100
12 | O=[N+]([O-])c1ncc(N(CCO)CCO)s1 | > 100 | 31.9 | 43.7 | > 100 | 33.4 | 56.9 | > 100 | 35.6 | > 100 | > 100 | 49.6 | > 100
13 | C(=N\c1nc2cc3sc(/N=C/c4ccccc4)nc3cc2s1)/c1ccccc1 | > 100 | > 100 | > 100 | > 100 | > 100 | 42 | > 100 | 97.4 | > 100 | > 100 | > 100 | > 100
14 | Cc1nc(-c2ccccc2)cn2c1nc1ccccc12 | 37.1 | > 31.6 | 31.7 | 50.9 | 55.5 | > 100 | > 77.7 | > 66.8 | > 31.6 | 43.5 | > 100 | > 59.6
15 | O=C(O)c1nc2cc(Cl)ccc2[nH]c1=O | > 100 | > 100 | > 100 | > 100 | > 100 | > 100 | > 100 | > 100 | > 100 | > 100 | > 100 | > 100
16 | CCOP(=O)(OCC)Oc1c(OC)c2[nH]c(C(=O)OC)cc2c2c(C(=O)O)c[nH]c12 | > 100 | > 100 | > 100 | > 100 | > 100 | > 100 | > 100 | > 100 | > 100 | > 100 | > 100 | > 100
17 | Cn1c(-c2ccco2)ccc1-c1ccc(C=O)o1 | > 100 | > 100 | > 100 | > 100 | > 100 | > 100 | > 100 | > 100 | > 100 | > 100 | > 100 | > 100
